Read-outs that look alike come from different tables or passages of the source.
Legend:
[1] = tested on: CFA induced PGE2 release in the ipsilateral inflamed hind paw of human KI mice (expressing human PTGES); assay: PGE2 measurements in CFA inflammation model using humanized KI mice; type: in vivo; settings: for % inhibition of PGE2 in vivo vs vehicle: p.o., single dose, hind paw 48 h after CFA, 1 h after dose; for inhibition of CFA-induced PGE2 formation/release in the hind paw: single oral dosing, hu KI mice
Experimental: PGE2 Measurements in CFA Inflammation Model Using Humanized KI Mice
Female transgenic mice expressing the human PTGES enzyme (Taconic, Xu et al. 2008) received intraplantar injection of complete Freund's adjuvant (CFA) (30 μl, 1 mg/ml, Sigma) into the left hind paw under isoflurane anesthesia. […] At termination of the experiments (48 h after CFA, 1 h after dose), hind paw tissue is collected for analysis of PGE2 levels (ELISA, Cayman Chemical item no. 514531). […] Statistical analysis is performed with one-way analysis of variance, followed by Bonferroni's multiple comparison test vs. vehicle controls using the GraphPad PRISM software, *p<0.05, **p<0.01.

[2] = tested on: CFA-induced pain behavior in WT mice; assay: CFA inflammation model with pain read out (dynamic weight bearing); type: in vivo; settings: single oral dosing on day 2 post-CFA, example 17: 30, 100 mg/kg, example 44: 30, 75 mg/kg
Experimental: Efficacy in CFA Inflammation Model with Pain Read Out
Wild type (WT) female c57bl/6 mice (Taconic) received intraplantar injection of complete Freund's adjuvant (CFA) (30 μl, 1 mg/ml, Sigma) into the left hind paw under isoflurane anesthesia. […] Spontaneous pain-related behavior in freely moving animals was assessed using the automated dynamic weight bearing device (DWB, Bioseb, France) according to published and validated protocols: Robinson I, Sargent B, Hatcher J P, Neurosci Lett. 2012 Aug. 30; 524(2):107-10. Use of dynamic weight bearing as a novel end-point for the assessment of Freund's Complete Adjuvant induced hypersensitivity in mice; Tétreault P, Dansereau M A, Doré-Savard L, Beaudet N, Sarret P. Physiol Behav. 2011 Sep. […] 2014 Jul. 30; 232:118-24. Use of dynamic weight bearing as a novel end-point for the assessment of abdominal pain in the LPS-induced peritonitis model in the rat. For behavioral testing, the animal was placed inside a Plexiglas chamber and allowed to move freely within the apparatus for a 5 min period, subsequently pain behavior is recorded for a test period of another 5 min.
Statistical analysis is performed with one-way analysis of variance, followed by Bonferroni's multiple comparison test vs. vehicle controls using the GraphPad PRISM software, *p<0.05, **p<0.01.

[3] = Unbound plasma concentration in human KI mice of the CFA model; type: in vivo; settings: female, human PTGES knock-in (humanized KI, transgenic) mice, mouse, read-out: Plasma concentration Cplasma-unbound
Experimental: At termination of the experiments (48 h after CFA, 1 h after dose), hind paw tissue is collected for analysis of PGE2 levels (ELISA, Cayman Chemical item no. 514531). […] Statistical analysis is performed with one-way analysis of variance, followed by Bonferroni's multiple comparison test vs. vehicle controls using the GraphPad PRISM software, *p<0.05, **p<0.01.

human PTGES = human PTGES (Homo sapiens (Human), UniProt O14684); assay: Human PTGES biochemical enzyme inhibition assay (conversion of PGH2 to PGE2, TR-FRET)
How it was run: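 FLAG-tagged human PTGES from Hi-5 insect cells preincubated 15–20 min with compound in pH 7.2 phosphate buffer with 2.5 mM reduced glutathione; reaction started with 8 nM PGH2 final, stopped with SnCl2/KF.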

[4] = tested on: vaginal hyperalgesia and proliferation in endometriotic lesions; assay: Endometriosis disease model (dyspareunia model); type: in vivo, rat; settings: 0.75 mg/kg, bid, p.o.
Text: Endometriosis Disease Model (Dyspareunia Model)
Female SD rats underwent endometriosis surgery in the estrus phase. 4 uterine fragments were sewn onto the mesenteric artery arc (closed to small intestine) and few other fragments (>2) were sewn onto the distal colonic wall. In parallel electrodes for later Electromyography (EMG) recordings were implanted in the abdominal wall to allow recording of the visceral motor response. After training viscero-motor response (VMR)/vaginal distension (VD) testing was performed 5 and 6 weeks post-surgery in the proestrus phase. For vaginal distension session, the uninflated balloon was lubricated and inserted into the mid-vaginal canal, located so, that it would not touch the cervix even when inflated. Inflating the balloon with different volumes of water using a computer-controlled pump distended the vaginal canal. In parallel, EMG recordings were collected to measure the VMR related to the distension. At 6 weeks, post-surgery endometriotic lesions and endometrium were excised to perform lesion analysis. RNA expression analysis was performed of lesions and endometrium. RNA of lesions and endometrium was isolated after homogenization of tissues in guanidinium thiocyanate using the RNeasy mini Kit (Qiagen) with DNase digestion. One microgram of RNA was reversely transcribed with random hexamers using the SuperScript III First-Strand Synthesis System (Invitrogen). Real-time Taqman PCR analysis was performed using the 7900HT Real Time PCR-System (Applied Biosystems). Prevalidated probes and primers for Mki67 (antigen identified by monoclonal antibody Ki-67; catalog No. Rn01451446_m1) and the endogenous control TBP* (see FIG. 1A; TATA box binding protein; catalog No. Rn01455646_m1) were purchased from Applied Biosystems. Relative mRNA levels were calculated using the comparative […]CT method using the RQ-Manager software (Applied Biosystems).
Example 17 (0.75 mg/kg, bid, p.o.) was administered twice daily starting end of week 2 post surgery until week 5 post surgery.

[5] = Enzymatic conversion of PGH2 to PGE2, read-out: Human PTGES IC50
[6] = human PTGES, as listed in Table 2, read-out: hu IC50 biochem.

Chain of human PTGES (O14684 whole entry): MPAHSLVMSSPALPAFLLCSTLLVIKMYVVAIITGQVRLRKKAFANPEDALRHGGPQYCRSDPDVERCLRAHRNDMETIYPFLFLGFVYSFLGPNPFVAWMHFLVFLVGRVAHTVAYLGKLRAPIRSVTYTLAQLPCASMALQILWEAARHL

Compound | % inhibition of PGE2 in vivo vs vehicle ([1]; 1 mg/kg) [%] | % inhibition of PGE2 in vivo vs vehicle ([1]; 3 mg/kg) [%] | % inhibition of PGE2 in vivo vs vehicle ([1]; 10 mg/kg) [%] | inhibition of CFA-induced PGE2 formation/release in the hind paw [1] | pain behavior as assessed by DWB after CFA-induced inflammation [2] | concentration at 1 h ([3]; plasma, oral, 1 mg/kg) [nM] | concentration at 1 h ([3]; plasma, oral, 3 mg/kg) [nM] | concentration at 1 h ([3]; plasma, oral, 10 mg/kg) [nM] | concentration at 1 h ([3]; in vivo, 1 mg/kg) [nM] | concentration at 1 h ([3]; in vivo, 3 mg/kg) [nM] | concentration at 1 h ([3]; in vivo, 10 mg/kg) [nM] | IC50 (human PTGES; [5]) [nM] | IC50 (human PTGES; [6]) [nM] | vaginal hyperalgesia versus vehicle-treated animals ([4]; end of week 2 until week 5 post surgery, rats) | proliferation in lesions (gene expression of proliferation marker Ki67 vs. housekeeping control) ([4]; Taqman in week 6) | vaginal hyperalgesia effect in the treatment free period ([4]; treatment free period of week 6)
Cc1c(CCC(=O)O)cccc1NC(=O)C(c1ccc(-c2cncc(Cl)c2)c(F)c1)C1CCCC1 (single isomer, unassigned; (-)) [Example 44, (−) 3-[3-({[4-(5-Chloropyridin-3-yl)-3-fluorophenyl](cyclopentyl)acetyl}amino)-2-methylphenyl]propanoic acid] | 95 | 65 | 100 | strong efficacy | significantly and dose-dependently reduced pain behavior | 15 | 47 | 173 | – | – | – | – | – | – | – | –
Cc1c(CCC(=O)O)cccc1NC(=O)C(c1ccc(-c2cncc(C(F)(F)F)c2)c(F)c1)C1CCCC1 (single isomer, unassigned; (-)) [Example 48, (−) 3-{3-[(Cyclopentyl{3-fluoro-4-[5-(trifluoromethyl)pyridin-3-yl]phenyl}acetyl)amino]-2-methylphenyl}propanoic acid] | 38 | 74 | 78 | – | – | – | – | – | 11 | 32 | 88 | 14.2 | 3 | – | – | –
Cc1c(CCC(=O)O)cccc1NC(=O)C(c1ccc(-c2cncc(C(F)(F)F)c2)cc1)C1CCC1 (single isomer, unassigned; (-)) [Example 55, (−) 3-{3-[(Cyclobutyl{4-[5-(trifluoromethyl)pyridin-3-yl]phenyl}acetyl)amino]-2-methylphenyl}propanoic acid] | 84 | 93 | 96 | – | – | – | – | – | 34 | 103 | 322 | 35.4 | 27 | – | – | –
Cc1c(NC(=O)C(c2ccc(-c3cncc(Cl)c3)cc2)C2CCCC2)cccc1C(C)CC(=O)O (single isomer, unassigned; stereoisomer 2) [Example 87, 3-[3-({[4-(5-Chloropyridin-3-yl)phenyl](cyclopentyl)acetyl}amino)-2-methylphenyl]butanoic acid, Stereoisomer 2] | 43 | 65 | 67 | – | – | 25 | 75 | 172 | – | – | – | – | – | – | – | –
Cc1c(CCC(=O)O)cccc1NC(=O)[C@@H](c1ccc(-c2cncc(C(F)(F)F)c2)cc1)C1CCCC1 [Example 2, (−) (R) 3-{3-[(Cyclopentyl{4-[5-(trifluoromethyl)pyridin-3-yl]phenyl}acetyl)amino]-2-methylphenyl}propanoic acid] | 37 | 75 | 94 | – | – | 21 | 62 | 190 | – | – | – | – | – | – | – | –
Cc1c(CCC(=O)O)cccc1NC(=O)[C@@H](c1ccc(-c2cncc(Cl)c2)cc1)C1CCCC1 [Example 17, (−) (R) 3-[3-({[4-(5-Chloropyridin-3-yl)phenyl](cyclopentyl)acetyl}amino)-2-methylphenyl]propanoic acid] | – | – | 88 | strong efficacy | significantly and dose-dependently reduced pain behavior | – | – | 380 | – | – | – | 35.2 | 35 | significantly decreased vaginal hyperalgesia | significantly reduced proliferation in lesions | effect was maintained

From patent publication US10172814B2, “Substituted pyridyl-cycloalkyl-carboxylic acids, compositions containing them and medical uses thereof” (BAYER PHARMA AKTIENGESELLSCHAFT, priority 2014, dated 2019)
